Results taken from US9603866B2, “Anti-fatigue composition, formulation and use thereof” (priority 2010, dated 2017).
Marks after values point to notes of the source that are not given here.

Key:
[1] = system: ICR mice; assay: Mice burden swimming test; format: in vivo; details: for Swimming time / Change rate of swimming time: gavage once a day, 30 days; for Swimming time: 6% body weight load; for Change rate of swimming time: vs normal control
Protocol: According to the Technical Standards for Testing & Assessment of Health Food issued by the Ministry of Health, P. R. China, function and biochemistry indexes assessment of the mixture of 20(S)-protopanoxadiol and lycium barbarum polysaccharide on the function of relieving physical fatigue is conducted; the detailed method is given as follows:
(§1) 1. Experimental animals: ICR mice, male, 18-22 g, provided by Shanghai Slack laboratory animal Co. Ltd., license number: SCXK (Shanghai) 2007-0005;
20(S)-protopanoxadiol: provide by Shanghai Innovative Research Center of Traditional Chinese Medicine, batch number: 20050606-1, purity: 94%; lycium barbarum polysaccharide: provided by Shanghai KangZhou Fungi Extract Co. Ltd., polysaccharide content≧30%.
To 20(S)-protopanoxadiol is added a small amount of 0.3% CMC-Na, followed by grinding to form a suspension and diluting with CMC-Na to a desired concentration. Then lycium barbarum polysaccharide is added to the 20(S)-protopanoxadiol suspension to form a composition with a certain concentration.
(§2) 3. Experimental groups: the mice are randomly divided into 19 groups by weight, 20 mice per each group; the detailed groups are as follows:
(§3) 0.2 ml/10 g of drug is administrated by gavage every day; for normal control group, 0.2 ml/10 g of distilled water is administrated by gavage every day; once a day, 30 days in total.
30 minutes after the last time of administrating drug, the end of the tail of each mouse is loaded with copper wires corresponding to 6% of its body weight, then the mouse is put in a swimming box to swim, the time from start of swimming to death of the mouse is recorded, i.e. the mice burden swimming time; the water depth in the swimming box is 30 cm or more, and water temperature is 23+1.0° C.
5. Statistical data processing: t-test is conducted to calculate P value, Jin Zhengjun formula is used to conduct combined medication analysis.
Other than the combined dosage of Experimental example 1, the range of combined dosage is enlarged to conduct multi-batch experiments. The experimental animals, drugs and method are the same as those of Experimental example 1, and the final results are shown in Table 2: […]

[2] = Animal weight during the 30-day gavage of the burden swimming study; format: in vivo, mice; details: gavage once a day, 30 days
Protocol: as §1, §2, §3

## CC(C)=CCC[C@](C)(O)[C@H]1CC[C@]2(C)[C@@H]1[C@H](O)C[C@@H]1[C@@]3(C)CC[C@H](O)C(C)(C)[C@@H]3CC[C@]12C [20(S)-protopanoxadiol]
[1]; 0.01 mg/kg
  Swimming time: 640 ± 275 s
  Change rate of swimming time: 1.5%
[1]; 0.5 mg/kg
  Swimming time: 660 ± 268 s
  Change rate of swimming time: 1.9%
[1]; 1 mg/kg
  Swimming time: 658 ± 296 s
  Change rate of swimming time: 2.2%
[1]; 5 mg/kg
  Swimming time: 640 ± 286 s
  Change rate of swimming time: 1.5%
[1]; Table 2, 0.01 mg/kg
  Swimming time change rate: 1.5%
[1]; Table 2, 0.5 mg/kg
  Swimming time change rate: 1.9%
[1]; Table 2, 1 mg/kg
  Swimming time change rate: 2.2%
[1]; Table 2, 3 mg/kg
  Swimming time change rate: 1.6%
[1]; Table 2, 6.25 mg/kg
  Swimming time change rate: 1.4%
[1]; Table 2, 12.5 mg/kg
  Swimming time change rate: 3.4%
[1]; Table 2, 25 mg/kg
  Swimming time change rate: 6.9%
[1]; Table 2, 50 mg/kg
  Swimming time change rate: 12.4* %
[1]; Table 2, single use, compared with normal control group (P>0.05)
  Effect on mice swimming time (in words): no significant effect on mice swimming time
[2]; 0.01 mg/kg
  Animal weight start/finish (finish): 21.6/39.2 g
[2]; 0.5 mg/kg
  Animal weight start/finish (finish): 21.8/38.8 g
[2]; 1 mg/kg
  Animal weight start/finish (finish): 21.7/38.7 g
[2]; 5 mg/kg
  Animal weight start/finish (finish): 21.8/38.9 g
